According to article PMC5100903, “Tissue Kallikrein Inhibitors Based on the Sunflower Trypsin Inhibitor Scaffold – A Potential Therapeutic Intervention for Skin Diseases” (PLoS ONE, 2016):
Read-outs that look alike come from different tables or passages of the source. Positions of bridges follow the written chain, without caps; N, C: chain ends. Residues, ends and D or L forms follow the SMILES beside them.

Key:
Human Plasma Kallikrein = Human Plasma Kallikrein (Homo sapiens, UniProt P03952); experiment: Human plasma kallikrein inhibition, Boc-VPR-AMC assay; assay type: biochemical; details: read-out: % inhibition of Human Plasma Kallikrein
Sequence of Human Plasma Kallikrein (P03952 20-638): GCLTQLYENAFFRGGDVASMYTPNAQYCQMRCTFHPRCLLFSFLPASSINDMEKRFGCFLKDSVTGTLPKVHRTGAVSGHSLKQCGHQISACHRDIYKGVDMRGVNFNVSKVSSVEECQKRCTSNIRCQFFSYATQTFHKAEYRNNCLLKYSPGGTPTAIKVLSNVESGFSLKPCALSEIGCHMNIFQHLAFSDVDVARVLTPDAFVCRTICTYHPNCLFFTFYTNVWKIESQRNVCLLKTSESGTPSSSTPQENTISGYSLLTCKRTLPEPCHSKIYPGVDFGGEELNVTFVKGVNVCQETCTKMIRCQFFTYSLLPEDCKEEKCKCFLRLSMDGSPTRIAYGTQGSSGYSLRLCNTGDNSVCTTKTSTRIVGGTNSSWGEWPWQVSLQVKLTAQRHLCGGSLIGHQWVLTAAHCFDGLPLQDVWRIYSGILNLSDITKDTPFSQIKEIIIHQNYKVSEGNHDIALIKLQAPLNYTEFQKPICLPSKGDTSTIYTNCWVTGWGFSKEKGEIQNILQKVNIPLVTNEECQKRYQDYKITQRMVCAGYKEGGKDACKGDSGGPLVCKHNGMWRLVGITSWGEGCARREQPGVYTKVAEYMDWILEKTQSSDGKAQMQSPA
Description: (§1) All assays were performed on 96-well microplates and the change in relative fluorescence unit (RFU) was measured by fluorescence spectrometer (BMG FLUOstar OPTIMA). The excitation/emission wavelength was 360/460 nm for the substrate Boc-VPR-AMC (Bachem AG, Hauptstrasse, Switzerland) and MeOSuc-AAPV-AMC (Bachem AG, Hauptstrasse, Switzerland) and 485/520 nm for BODIPY_FL casein (Invitrogen, Carlsbad, US). Stock solution of Boc-VPR-AMC was prepared by dissolving the solid in dimethyl sulfoxide to 100 mM and 10 mM for MeOSuc-AAPV. For BODIPY_FL casein, it was reconstituted to 1 mg/mL in 1xPBS. […] The % of inhibition was calculated by the following equation: % of Inhibition=(1−(Sample RFU − Min RFU)/(Max RFU − Min RFU)) X100
(§2) Each inhibition curves were done in triplicates with a minimum of five concentration points fitted. Fitting of each curve was done using SigmaPlot with the Four Parameter Logistic Function and the IC50 calculated. […] All tested compounds were reconstituted to stock solution in water.
(§3) The diluent for all the tested compounds, protein and substrate (except KLK7, which was done with 10 mM Tris pH 7.8) was 1xPBS pH 8.0–8.9. The serially diluted ligands were mixed with diluted bovine trypsin (Sigma, Dorset, U.K.) or activated KLK14, or KLK5, or activated KLK8 or matriptase (catalytic domain only, >90% purity by SDS-PAGE, endotoxin <0.1 ng/μg, R&D, Minneapolis, U.S.) or activated KLK7 or human neutrophil elastase (purified from human plasma, >95% purity by SDS-PAGE, Abcam, Cambridge, U.K.) or porcine pancreatic elastase 1 (Sigma, Dorset, U.K.) or human plasma kallikrein or human plasma plasmin (purified from human plasma, ≥95% purity by SDS-PAGE, BioVision, Milpitas, U.S.). 20μL of the ligand-protein mixture was pipetted to a well of a 96-well microplate in triplicates. The reaction was started by addition of 90–100 μL of the diluted substrate solution (contained 0.05% v/v Brij35) and the plate incubated at 25°C but 37°C for KLK7. RFU reading for each well was taken 6 minutes (trypsin) or 15 minutes (KLK14, KLK5, KLK8, matriptase, human neutrophil elastase, porcine pancreatic elastase 1, plasma kallikrein and plasmin) or 20 hours (KLK7) after substrate addition.

[1] = target: T1, Human Neutrophil Elastase (Homo sapiens, UniProt P08246); experiment: Human neutrophil elastase inhibition, MeOSuc-AAPV-AMC assay; assay type: biochemical; details: read-out: % inhibition of Human Neutrophil Elastase
T1 construct: human neutrophil elastase (purified from human plasma); purchased Abcam; host or cells: human plasma (so in the source)
T1 sequence (P08246 30-247 limits assumed): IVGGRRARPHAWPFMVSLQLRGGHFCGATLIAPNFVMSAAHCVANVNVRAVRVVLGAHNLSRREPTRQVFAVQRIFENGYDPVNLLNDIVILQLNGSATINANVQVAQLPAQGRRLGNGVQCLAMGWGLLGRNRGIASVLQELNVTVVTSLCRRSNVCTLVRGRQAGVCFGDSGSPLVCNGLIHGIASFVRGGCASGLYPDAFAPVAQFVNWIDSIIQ
Description: as §1, §2, §3

KLK14 = target: T2, KLK14 (Homo sapiens, UniProt Q9P0G3); experiment: biochemical; assay type: biochemical
T2 construct: purchased R&D
T2 sequence (Q9P0G3 25-251): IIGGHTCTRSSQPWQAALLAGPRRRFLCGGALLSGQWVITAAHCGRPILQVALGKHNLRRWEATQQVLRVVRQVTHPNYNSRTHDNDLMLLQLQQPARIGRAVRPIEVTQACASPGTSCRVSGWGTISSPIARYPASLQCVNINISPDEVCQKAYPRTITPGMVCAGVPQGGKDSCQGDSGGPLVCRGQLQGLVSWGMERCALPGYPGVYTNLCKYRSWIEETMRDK
Description: as §1, with “The excitation/emission wavelength was 360/460 nm for the substrate Boc-VPR-AMC (Bachem AG, Hauptstrasse, Switzerland) and MeOSuc-AAPV-AMC (Bachem AG, Hauptstrasse, Switzerland) and 485/520 nm for BODIPY_FL casein (Invitrogen, Carlsbad, US).” left out
as §2
KLK7 and KLK14 were activated by addition of 1 mM f/c CaCl2 (Sigma, Dorset, U.K.), 0.05% v/v Brij35 (Sigma, Dorset, U.K.), 20 nM f/c thermolysin (Sigma, Dorset, U.K.) and incubated at 37°C for 1 hour. The reaction was stopped by addition of ethylenediaminetetraacetic acid (EDTA, 50 mM f/c). […] The RFU value reached by the thermolysin control was used as the minimum RFU for calculating the % of inhibition for KLK7.
The diluent for all the tested compounds, protein and substrate (except KLK7, which was done with 10 mM Tris pH 7.8) was 1xPBS pH 8.0–8.9. […] 20μL of the ligand-protein mixture was pipetted to a well of a 96-well microplate in triplicates. The reaction was started by addition of 90–100 μL of the diluted substrate solution (contained 0.05% v/v Brij35) and the plate incubated at 25°C but 37°C for KLK7. RFU reading for each well was taken 6 minutes (trypsin) or 15 minutes (KLK14, KLK5, KLK8, matriptase, human neutrophil elastase, porcine pancreatic elastase 1, plasma kallikrein and plasmin) or 20 hours (KLK7) after substrate addition.

KLK5 = target: T3, KLK5 (Homo sapiens, UniProt Q9Y337); experiment: biochemical
T3 construct: purchased Novoprotein
T3 sequence (Q9Y337 23-293): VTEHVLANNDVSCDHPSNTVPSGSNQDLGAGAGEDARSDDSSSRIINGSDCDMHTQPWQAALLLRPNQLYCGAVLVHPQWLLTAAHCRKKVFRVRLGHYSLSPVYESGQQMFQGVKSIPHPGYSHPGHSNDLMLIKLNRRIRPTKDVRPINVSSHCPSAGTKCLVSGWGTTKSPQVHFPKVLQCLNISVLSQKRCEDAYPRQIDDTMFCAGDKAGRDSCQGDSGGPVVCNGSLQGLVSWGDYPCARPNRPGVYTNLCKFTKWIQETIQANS
Description: as §1, §2, §3
There are two previously reported Km values for KLK5 and its substrate Boc-VPR-AMC which allowed the IC50 to Ki conversion. Ki values were calculated according to the Cheng-Prusoff equation Ki= IC50/1+[S]/Km for single site competitive binding.

[2] = calculated from Table 3 IC50 by Cheng-Prusoff equation, read-out: Ki, KLK5 (converted)
[3] = enzyme 10 nM, Boc-VPR-AMC 42 μM, 1xPBS pH 8.0–8.9, 25°C, 15 minutes
[4] = at 10 μM, enzyme 14 nM, Boc-VPR-AMC 42 μM
[5] = at 10 μM, enzyme 10 nM, MeOSuc-AAPV-AMC 41 μM

Compound `CC[C@H](C)[C@@H]1NC(=O)[C@H](CO)NC(=O)[C@H](CCCCN)NC(=O)[C@H]([C@@H](C)O)NC(=O)[C@@H]2CSSC[C@H](NC(=O)[C@H](Cc3c[nH]cn3)NC(=O)[C@@H]3CCCN3C(=O)[C@@H]3CCCN3C1=O)C(=O)N[C@@H](Cc1c[nH]c3ccccc13)C(=O)N1CCC[C@H]1C(=O)N[C@@H](CC(=O)O)C(=O)NCC(=O)N[C@@H](CCCNC(=N)N)C(=O)N2` [Analogue 2] (cyclo(CTKSIPPHCWPDGR); disulfide 1-9) has an inhibition at 10 µM (Human Plasma Kallikrein) of 0%, an inhibition at 10 µM [1] of 0% and an IC50 (KLK14) of 85 ± 6 nM.

`CC[C@H](C)[C@@H]1NC(=O)[C@H](CO)NC(=O)[C@H](CCCNC(=N)N)NC(=O)[C@H]([C@@H](C)O)NC(=O)[C@@H]2CSSC[C@H](NC(=O)[C@H](Cc3c[nH]cn3)NC(=O)[C@@H]3CCCN3C(=O)[C@@H]3CCCN3C1=O)C(=O)N[C@@H](Cc1c[nH]c3ccccc13)C(=O)N1CCC[C@H]1C(=O)N[C@@H](CC(=O)O)C(=O)NCC(=O)N[C@@H](CCCNC(=N)N)C(=O)N2` [Analogue 6] (cyclo(CTRSIPPHCWPDGR); disulfide 1-9) showed an IC50 (KLK5) of 56 ± 0.5 nM, a Ki (KLK5) of 51 nM and an inhibition at 10 µM (Human Plasma Kallikrein) of 15%. For the same compound, the inhibition at 10 µM [1] was 0% and the IC50 (KLK14) was 24 ± 2 nM.

`CC[C@H](C)[C@@H]1NC(=O)[C@H](CO)NC(=O)[C@H](CCCCN)NC(=O)[C@H]([C@@H](C)O)NC(=O)[C@@H]2CSSC[C@H](NC(=O)[C@H](Cc3c[nH]cn3)NC(=O)[C@@H]3CCCN3C(=O)[C@@H]3CCCN3C1=O)C(=O)N[C@@H](Cc1ccccc1)C(=O)N1CCC[C@H]1C(=O)N[C@@H](CC(=O)O)C(=O)NCC(=O)N[C@@H](CCCNC(=N)N)C(=O)N2` [Analogue I10H] (cyclo(CFPDGRCTKSIPPH); disulfide 1-7) showed a Ki (KLK5; [2]) of 478 nM, an IC50 (KLK5; [3]) of 523 ± 11 nM and an inhibition at 10 µM (Human Plasma Kallikrein; [4]) of 0%. For the same compound, the inhibition at 10 µM [1, 5] was 0%, the IC50 (KLK14; enzyme 10 nM, Boc-VPR-AMC 45 μM, 25°C, 15 minutes) was 470 ± 47 nM and the “fold potency drop on KLK14 compared to native SFTI” value (KLK14; from Table 3 IC50) was ~20 fold.

Work on `CC[C@H](C)[C@@H]1NC(=O)[C@@H]2CCCN2C(=O)[C@@H]2CCCN2C(=O)[C@H]([C@@H](C)CC)NC(=O)[C@H](CO)NC(=O)[C@H](CCCCN)NC(=O)[C@H]([C@@H](C)O)NC(=O)[C@@H]2CSSC[C@H](NC1=O)C(=O)N[C@@H](Cc1ccccc1)C(=O)N1CCC[C@H]1C(=O)N[C@@H](CC(=O)O)C(=O)NCC(=O)N[C@@H](CCCNC(=N)N)C(=O)N2` [Native SFTI, Sunflower Trypsin Inhibitor 1, reference compound] yielded a Ki (KLK5; [2]) of 210 nM, an IC50 (KLK5; [3]) of 230 ± 3 nM and an inhibition at 10 µM (Human Plasma Kallikrein; [4]) of 0%. The inhibition at 10 µM [1, 5] was 0%.
